Assay results as given in the supplement of paper PMC13207355.

Assays:
Settings in all cases: exposure time: 72 h
[1] = tested on: E13 (patient-derived glioblastoma stem cells of classical subtype); assay: surviving fraction (nuclei count normalised to DMSO); higher = more cells surviving (less toxic)
[2] = tested on: E21 (patient-derived glioblastoma stem cells of mesenchymal subtype); assay: as above
[3] = tested on: E28 (patient-derived glioblastoma stem cells of classical subtype); assay: as above
[4] = tested on: E31 (patient-derived glioblastoma stem cells of proneural subtype); assay: as above
[5] = tested on: E34 (patient-derived glioblastoma stem cells of proneural subtype); assay: as above
[6] = tested on: E57 (patient-derived glioblastoma stem cells of mesenchymal subtype); assay: as above
[7] = tested on: FT3469 (normal neural stem cell line); assay: as above
[8] = tested on: E13; assay: phenotypic distance (Euclidean, principal components) from DMSO controls (arbitrary units); higher = stronger morphological change
[9] = tested on: E21; assay: as above
[10] = tested on: E28; assay: as above
[11] = tested on: E31; assay: as above
[12] = tested on: E34; assay: as above
[13] = tested on: E57; assay: as above
[14] = tested on: FT3469; assay: as above
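For phenotypic distance (Euclidean, principal components) from DMSO controls in this document: cell Painting imaging in 384-well plates, CellProfiler features reduced to at least 20 principal components, Euclidean distance versus same-plate DMSO vehicle wells (0.1% v/v), median over six images per well.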
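For surviving fraction (nuclei count normalised to DMSO) in this document: nuclei counted by high-content imaging of Hoechst-stained cells in laminin-coated 384-well plates, relative to 0.1% DMSO vehicle wells, with staurosporine as cell-death control.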

Compound: COc1cc2c(cc1O)CC[C@@H]1[C@@H]2CC[C@]2(C)[C@@H](O)CC[C@@H]12 [2-methoxyestradiol]
- surviving fraction ([1]; 4.1 nM): 0.992
- surviving fraction ([1]; 12.3 nM): 0.961
- surviving fraction ([1]; 37 nM): 0.838
- surviving fraction ([1]; 111.1 nM): 1.04
- surviving fraction ([1]; 333.3 nM): 0.816
- surviving fraction ([1]; 1000 nM): 0.777
- surviving fraction ([1]; 3000 nM): 0.174
- surviving fraction ([2]; 4.1 nM): 0.888
- surviving fraction ([2]; 12.3 nM): 0.932
- surviving fraction ([2]; 37 nM): 0.919
- surviving fraction ([2]; 111.1 nM): 0.885
- surviving fraction ([2]; 333.3 nM): 0.928
- surviving fraction ([2]; 1000 nM): 0.803
- surviving fraction ([2]; 3000 nM): 0.257
- surviving fraction ([3]; 4.1 nM): 1.14
- surviving fraction ([3]; 12.3 nM): 0.843
- surviving fraction ([3]; 37 nM): 0.86
- surviving fraction ([3]; 111.1 nM): 0.687
- surviving fraction ([3]; 333.3 nM): 0.862
- surviving fraction ([3]; 1000 nM): 0.768
- surviving fraction ([3]; 3000 nM): 0.41
- surviving fraction ([4]; 4.1 nM): 1.08
- surviving fraction ([4]; 12.3 nM): 0.913
- surviving fraction ([4]; 37 nM): 0.985
- surviving fraction ([4]; 111.1 nM): 0.862
- surviving fraction ([4]; 333.3 nM): 0.731
- surviving fraction ([4]; 1000 nM): 0.63
- surviving fraction ([4]; 3000 nM): 0.194
- surviving fraction ([5]; 4.1 nM): 0.925
- surviving fraction ([5]; 12.3 nM): 0.876
- surviving fraction ([5]; 37 nM): 1.11
- surviving fraction ([5]; 111.1 nM): 1.07
- surviving fraction ([5]; 333.3 nM): 1.02
- surviving fraction ([5]; 1000 nM): 0.876
- surviving fraction ([5]; 3000 nM): 0.388
- surviving fraction ([6]; 4.1 nM): 1.04
- surviving fraction ([6]; 12.3 nM): 1.02
- surviving fraction ([6]; 37 nM): 1.09
- surviving fraction ([6]; 111.1 nM): 1.06
- surviving fraction ([6]; 333.3 nM): 1.03
- surviving fraction ([6]; 1000 nM): 0.891
- surviving fraction ([6]; 3000 nM): 0.19
- surviving fraction ([7]; 4.1 nM): 0.794
- surviving fraction ([7]; 12.3 nM): 0.981
- surviving fraction ([7]; 37 nM): 1
- surviving fraction ([7]; 111.1 nM): 0.858
- surviving fraction ([7]; 333.3 nM): 0.846
- surviving fraction ([7]; 1000 nM): 0.855
- surviving fraction ([7]; 3000 nM): 0.527
- phenotypic distance ([8]; 4.1 nM): 0.645
- phenotypic distance ([8]; 12.3 nM): 0.821
- phenotypic distance ([8]; 37 nM): 1.01
- phenotypic distance ([8]; 111.1 nM): 1.47
- phenotypic distance ([8]; 333.3 nM): 0.958
- phenotypic distance ([8]; 1000 nM): 1.4
- phenotypic distance ([8]; 3000 nM): 5.03
- phenotypic distance ([9]; 4.1 nM): 1
- phenotypic distance ([9]; 12.3 nM): 1.01
- phenotypic distance ([9]; 37 nM): 0.858
- phenotypic distance ([9]; 111.1 nM): 1.42
- phenotypic distance ([9]; 333.3 nM): 1.01
- phenotypic distance ([9]; 1000 nM): 1.82
- phenotypic distance ([9]; 3000 nM): 6.05
- phenotypic distance ([10]; 4.1 nM): 0.862
- phenotypic distance ([10]; 12.3 nM): 1.15
- phenotypic distance ([10]; 37 nM): 0.941
- phenotypic distance ([10]; 111.1 nM): 1.27
- phenotypic distance ([10]; 333.3 nM): 0.698
- phenotypic distance ([10]; 1000 nM): 1.54
- phenotypic distance ([10]; 3000 nM): 3.97
- phenotypic distance ([11]; 4.1 nM): 0.701
- phenotypic distance ([11]; 12.3 nM): 0.672
- phenotypic distance ([11]; 37 nM): 0.712
- phenotypic distance ([11]; 111.1 nM): 0.758
- phenotypic distance ([11]; 333.3 nM): 0.88
- phenotypic distance ([11]; 1000 nM): 1.61
- phenotypic distance ([11]; 3000 nM): 5.31
- phenotypic distance ([12]; 4.1 nM): 0.764
- phenotypic distance ([12]; 12.3 nM): 2.41
- phenotypic distance ([12]; 37 nM): 0.956
- phenotypic distance ([12]; 111.1 nM): 0.641
- phenotypic distance ([12]; 333.3 nM): 0.508
- phenotypic distance ([12]; 1000 nM): 1.21
- phenotypic distance ([12]; 3000 nM): 4.96
- phenotypic distance ([13]; 4.1 nM): 0.835
- phenotypic distance ([13]; 12.3 nM): 1.06
- phenotypic distance ([13]; 37 nM): 0.97
- phenotypic distance ([13]; 111.1 nM): 0.943
- phenotypic distance ([13]; 333.3 nM): 0.975
- phenotypic distance ([13]; 1000 nM): 2.06
- phenotypic distance ([13]; 3000 nM): 7.41
- phenotypic distance ([14]; 4.1 nM): 1.02
- phenotypic distance ([14]; 12.3 nM): 0.62
- phenotypic distance ([14]; 37 nM): 0.868
- phenotypic distance ([14]; 111.1 nM): 0.854
- phenotypic distance ([14]; 333.3 nM): 0.793
- phenotypic distance ([14]; 1000 nM): 0.919
- phenotypic distance ([14]; 3000 nM): 3.47

Compound: NCCCP(=O)(O)O [3-Aminopropylphosphonic acid]
- surviving fraction ([1]; 4.1 nM): 0.801
- surviving fraction ([1]; 12.3 nM): 0.888
- surviving fraction ([1]; 37 nM): 1
- surviving fraction ([1]; 111.1 nM): 0.872
- surviving fraction ([1]; 333.3 nM): 0.982
- surviving fraction ([1]; 1000 nM): 0.884
- surviving fraction ([1]; 3000 nM): 0.962
- surviving fraction ([2]; 4.1 nM): 0.806
- surviving fraction ([2]; 12.3 nM): 0.98
- surviving fraction ([2]; 37 nM): 0.902
- surviving fraction ([2]; 111.1 nM): 0.886
- surviving fraction ([2]; 333.3 nM): 1.08
- surviving fraction ([2]; 1000 nM): 1
- surviving fraction ([2]; 3000 nM): 0.86
- surviving fraction ([3]; 4.1 nM): 0.762
- surviving fraction ([3]; 12.3 nM): 0.907
- surviving fraction ([3]; 37 nM): 0.775
- surviving fraction ([3]; 111.1 nM): 0.984
- surviving fraction ([3]; 333.3 nM): 0.931
- surviving fraction ([3]; 1000 nM): 0.888
- surviving fraction ([3]; 3000 nM): 0.713
- surviving fraction ([4]; 4.1 nM): 1.14
- surviving fraction ([4]; 12.3 nM): 0.932
- surviving fraction ([4]; 37 nM): 1
- surviving fraction ([4]; 111.1 nM): 0.983
- surviving fraction ([4]; 333.3 nM): 1.05
- surviving fraction ([4]; 1000 nM): 0.771
- surviving fraction ([4]; 3000 nM): 0.945
- surviving fraction ([5]; 4.1 nM): 0.923
- surviving fraction ([5]; 12.3 nM): 1.06
- surviving fraction ([5]; 37 nM): 0.998
- surviving fraction ([5]; 111.1 nM): 1.09
- surviving fraction ([5]; 333.3 nM): 1.08
- surviving fraction ([5]; 1000 nM): 1.05
- surviving fraction ([5]; 3000 nM): 1.05
- surviving fraction ([6]; 4.1 nM): 0.924
- surviving fraction ([6]; 12.3 nM): 0.912
- surviving fraction ([6]; 37 nM): 1.01
- surviving fraction ([6]; 111.1 nM): 1.06
- surviving fraction ([6]; 333.3 nM): 0.959
- surviving fraction ([6]; 1000 nM): 0.941
- surviving fraction ([6]; 3000 nM): 1.07
- surviving fraction ([7]; 4.1 nM): 0.65
- surviving fraction ([7]; 12.3 nM): 0.955
- surviving fraction ([7]; 37 nM): 0.892
- surviving fraction ([7]; 111.1 nM): 0.941
- surviving fraction ([7]; 333.3 nM): 1.09
- surviving fraction ([7]; 1000 nM): 1.08
- surviving fraction ([7]; 3000 nM): 1.06
- phenotypic distance ([8]; 4.1 nM): 0.873
- phenotypic distance ([8]; 12.3 nM): 0.485
- phenotypic distance ([8]; 37 nM): 1.1
- phenotypic distance ([8]; 111.1 nM): 0.795
- phenotypic distance ([8]; 333.3 nM): 1.09
- phenotypic distance ([8]; 1000 nM): 0.46
- phenotypic distance ([8]; 3000 nM): 0.816
- phenotypic distance ([9]; 4.1 nM): 1.29
- phenotypic distance ([9]; 12.3 nM): 5.29
- phenotypic distance ([9]; 37 nM): 0.988
- phenotypic distance ([9]; 111.1 nM): 1.15
- phenotypic distance ([9]; 333.3 nM): 1.08
- phenotypic distance ([9]; 1000 nM): 0.704
- phenotypic distance ([9]; 3000 nM): 0.925
- phenotypic distance ([10]; 4.1 nM): 0.627
- phenotypic distance ([10]; 12.3 nM): 0.887
- phenotypic distance ([10]; 37 nM): 1.05
- phenotypic distance ([10]; 111.1 nM): 0.933
- phenotypic distance ([10]; 333.3 nM): 1.07
- phenotypic distance ([10]; 1000 nM): 0.732
- phenotypic distance ([10]; 3000 nM): 1.53
- phenotypic distance ([11]; 4.1 nM): 0.65
- phenotypic distance ([11]; 12.3 nM): 0.816
- phenotypic distance ([11]; 37 nM): 0.948
- phenotypic distance ([11]; 111.1 nM): 0.488
- phenotypic distance ([11]; 333.3 nM): 0.824
- phenotypic distance ([11]; 1000 nM): 0.792
- phenotypic distance ([11]; 3000 nM): 0.929
- phenotypic distance ([12]; 4.1 nM): 0.981
- phenotypic distance ([12]; 12.3 nM): 3.38
- phenotypic distance ([12]; 37 nM): 1.08
- phenotypic distance ([12]; 111.1 nM): 0.945
- phenotypic distance ([12]; 333.3 nM): 0.527
- phenotypic distance ([12]; 1000 nM): 4.28
- phenotypic distance ([12]; 3000 nM): 0.559
- phenotypic distance ([13]; 4.1 nM): 1.04
- phenotypic distance ([13]; 12.3 nM): 0.788
- phenotypic distance ([13]; 37 nM): 0.764
- phenotypic distance ([13]; 111.1 nM): 0.744
- phenotypic distance ([13]; 333.3 nM): 0.772
- phenotypic distance ([13]; 1000 nM): 1.04
- phenotypic distance ([13]; 3000 nM): 1.21
- phenotypic distance ([14]; 4.1 nM): 1.45
- phenotypic distance ([14]; 12.3 nM): 0.83
- phenotypic distance ([14]; 37 nM): 0.983
- phenotypic distance ([14]; 111.1 nM): 0.685
- phenotypic distance ([14]; 333.3 nM): 0.68
- phenotypic distance ([14]; 1000 nM): 0.784
- phenotypic distance ([14]; 3000 nM): 2.45
